This is an account of results in US11986532B2 (Arvinas Operations, Inc., priority 2021, dated 2024).

The target of this assay is T1, BCL6 (Homo sapiens, UniProt P41182).
T1 construct: endogenous in cells; host or cells: T47D breast cancer epithelial cells
The assay can be described thus: Immunofluorescence protocol for high content imaging of BCL6 (degradation) in T47D cells, 3 days compound treatment. Format: cell-based. The note with it: T47D cells, 3 days compound treatment; for DC50: read-out: Mean DC50 (nM)* category; for Dmax: read-out: Mean Dmax (%)** category. A digest of the protocol:
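For degradation, compound series (3-fold, 11 points, top 0.1 or 1 μM final) were added to adherent T47D cultures for 3 days. BCL6 immunostaining used a rabbit antibody at 1:300 and an Alexa-488 secondary, with imaging at 10× magnification.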

In the case of `CNC(=O)COc1cc2cc(Nc3nc(N4CCC(CN5CCC6(CC5)CN(c5ccc7c(c5)C(=O)N(C5CCC(=O)NC5=O)C7=O)C6)CC4)ncc3Cl)cc(F)c2n(C(C)C)c1=O` (stereo not drawn) [Compound 111, 2-{[6-({5-chloro-2-[4-({2-[2-(2,6-dioxopiperidin-3-yl)-1,3-dioxo-2,3-dihydro-1H-isoindol-5-yl]-2,7-diazaspiro[3.5]nonan-7-yl}methyl)piperidin-1-yl]pyrimidin-4-yl}amino)-8-fluoro-2-oxo-1-(propan-2-yl)-1,2-dihydroquinolin-3-yl]oxy}-N-methylacetamide], the DC50 is under 10 nM and the Dmax was 50 to 70%.

For the compound `CNC(=O)COc1cc2cc(Nc3nc(N4CCN(C(C)(C)C5CCN(c6cc7c(cc6OC)C(=O)N(C6CCC(=O)NC6=O)C7)CC5)CC4)ncc3Cl)ccc2n(C(C)C)c1=O` (stereo not drawn) [Compound 112, 2-{[6-({5-chloro-2-[4-(2-{1-[2-(2,6-dioxopiperidin-3-yl)-6-methoxy-1-oxo-2,3-dihydro-1H-isoindol-5-yl]piperidin-4-yl}propan-2-yl)piperazin-1-yl]pyrimidin-4-yl}amino)-2-oxo-1-(propan-2-yl)-1,2-dihydroquinolin-3-yl]oxy}-N-methylacetamide], the DC50 was under 10 nM and the Dmax fell in the range of 50 to 70%.

Take `CNC(=O)COc1cc2cc(Nc3nc(N4CCN(CC5(F)CCN(c6ccc7c(c6)CN(C6CCC(=O)NC6=O)C7=O)CC5)CC4)ncc3Cl)ccc2n(C(C)C)c1=O` (stereo not drawn) [Compound 113, 2-{[6-({5-chloro-2-[4-({1-[2-(2,6-dioxopiperidin-3-yl)-1-oxo-3H-isoindol-5-yl]-4-fluoropiperidin-4-yl}methyl)piperazin-1-yl]pyrimidin-4-yl}amino)-1-isopropyl-2-oxoquinolin-3-yl]oxy}-N-methylacetamide]: the DC50 was under 10 nM and the Dmax fell in the range of 50 to 70%.

On to `CNC(=O)COc1cc2cc(Nc3nc(N4CCN(CC5(F)CCN(c6cccc7c6CN(C6CCC(=O)NC6=O)C7=O)CC5)CC4)ncc3Cl)ccc2n(C(C)C)c1=O` (stereo not drawn) [Compound 114, 2-{[6-({5-chloro-2-[4-({1-[2-(2,6-dioxopiperidin-3-yl)-1-oxo-2,3-dihydro-1H-isoindol-4-yl]-4-fluoropiperidin-4-yl}methyl)piperazin-1-yl]pyrimidin-4-yl}amino)-2-oxo-1-(propan-2-yl)-1,2-dihydroquinolin-3-yl]oxy}-N-methylacetamide], for which the DC50 is under 10 nM and the Dmax fell in the range of 50 to 70%.

With `CNC(=O)COc1cc2cc(Nc3nc(N4CCC(CN5CC6(CCN(c7cc8c(c(OC)c7)C(=O)N(C7CCC(=O)NC7=O)C8)CC6)C5)CC4)ncc3Cl)ccc2n(C(C)C)c1=O` (stereo not drawn) [Compound 115, 2-{[6-({5-chloro-2-[4-({7-[2-(2,6-dioxopiperidin-3-yl)-7-methoxy-1-oxo-2,3-dihydro-1H-isoindol-5-yl]-2,7-diazaspiro[3.5]nonan-2-yl}methyl)piperidin-1-yl]pyrimidin-4-yl}amino)-2-oxo-1-(propan-2-yl)-1,2-dihydroquinolin-3-yl]oxy}-N-methylacetamide], the DC50 is under 10 nM and the Dmax fell in the range of 50 to 70%.

Consider `CNC(=O)COc1cc2cc(Nc3nc(N4CCC(O[C@H]5C[C@H](N6CCC(c7c(F)cc8c(c7F)CN(C7CCC(=O)NC7=O)C8=O)CC6)C5)CC4)ncc3Cl)ccc2n(C(C)C)c1=O` (stereo partly drawn) [Compound 116, 2-({6-[(5-chloro-2-{4-[(1r,3r)-3-{4-[2-(2,6-dioxopiperidin-3-yl)-4,6-difluoro-1-oxo-2,3-dihydro-1H-isoindol-5-yl]piperidin-1-yl}cyclobutoxy]piperidin-1-yl}pyrimidin-4-yl)amino]-2-oxo-1-(propan-2-yl)-1,2-dihydroquinolin-3-yl}oxy)-N-methylacetamide], for which the DC50 was under 10 nM and the Dmax lay in the range of 50 to 70%.

Regarding `CNC(=O)COc1cc2cc(Nc3nc(N4CCC(O[C@H]5CC[C@H](N6CCC(c7ccc8c(c7)C(=O)N(C7CCC(=O)NC7=O)C8=O)CC6)CC5)CC4)ncc3Cl)ccc2n(C(C)C)c1=O` (stereo partly drawn) [Compound 117, 2-[(6-{[5-chloro-2-(4-{[(1r,4r)-4-{4-[2-(2,6-dioxopiperidin-3-yl)-1,3-dioxo-2,3-dihydro-1H-isoindol-5-yl]piperidin-1-yl}cyclohexyl]oxy}piperidin-1-yl)pyrimidin-4-yl]amino}-2-oxo-1-(propan-2-yl)-1,2-dihydroquinolin-3-yl)oxy]-N-methylacetamide], the DC50 is under 10 nM and the Dmax was in the range of 50 to 70%.

Turning to `CNC(=O)COc1cc2cc(Nc3nc(N4CCN(CC5CCN(c6cc(OC)cc7c6CN(C6CCC(=O)NC6=O)C7=O)CC5)CC4)ncc3Cl)ccc2n(C(C)C)c1=O` (stereo not drawn) [Compound 119, 2-{[6-({5-chloro-2-[4-({1-[2-(2,6-dioxopiperidin-3-yl)-6-methoxy-1-oxo-2,3-dihydro-1H-isoindol-4-yl]piperidin-4-yl}methyl)piperazin-1-yl]pyrimidin-4-yl}amino)-2-oxo-1-(propan-2-yl)-1,2-dihydroquinolin-3-yl]oxy}-N-methylacetamide], the DC50 was under 10 nM and the Dmax lay within 50 to 70%.

As to `CNC(=O)COc1cc2cc(Nc3nc(N4CCN(CC5CCN(c6ccc(F)c7c6CN(C6CCC(=O)NC6=O)C7=O)CC5)CC4)ncc3Cl)ccc2n(C(C)C)c1=O` (stereo not drawn) [Compound 120, 2-{[6-({5-chloro-2-[4-({1-[2-(2,6-dioxopiperidin-3-yl)-7-fluoro-1-oxo-2,3-dihydro-1H-isoindol-4-yl]piperidin-4-yl}methyl)piperazin-1-yl]pyrimidin-4-yl}amino)-2-oxo-1-(propan-2-yl)-1,2-dihydroquinolin-3-yl]oxy}-N-methylacetamide], the DC50 was under 10 nM and the Dmax lay in the range of 50 to 70%.

Turning to `CNC(=O)COc1cc2cc(Nc3nc(N4CCN(CC5CCN(c6ccc(OC)c7c6CN(C6CCC(=O)NC6=O)C7=O)CC5)CC4)ncc3Cl)ccc2n(C(C)C)c1=O` (stereo not drawn) [Compound 121, 2-{[6-({5-chloro-2-[4-({1-[2-(2,6-dioxopiperidin-3-yl)-7-methoxy-1-oxo-2,3-dihydro-1H-isoindol-4-yl]piperidin-4-yl}methyl)piperazin-1-yl]pyrimidin-4-yl}amino)-2-oxo-1-(propan-2-yl)-1,2-dihydroquinolin-3-yl]oxy}-N-methylacetamide], the DC50 was under 10 nM and the Dmax lay in the range of 50 to 70%.

Take `CNC(=O)COc1cc2cc(Nc3nc(N4CCC(F)(CN5CC6(CCN(c7ccc8c(c7)CN(C7CCC(=O)NC7=O)C8=O)CC6)C5)CC4)ncc3Cl)ccc2n(C(C)C)c1=O` (stereo not drawn) [Compound 122, 2-{[6-({5-chloro-2-[4-({7-[2-(2,6-dioxopiperidin-3-yl)-1-oxo-2,3-dihydro-1H-isoindol-5-yl]-2,7-diazaspiro[3.5]nonan-2-yl}methyl)-4-fluoropiperidin-1-yl]pyrimidin-4-yl}amino)-2-oxo-1-(propan-2-yl)-1,2-dihydroquinolin-3-yl]oxy}-N-methylacetamide]: the DC50 was under 10 nM and the Dmax lay in the range of 50 to 70%.

On to `CNC(=O)COc1cc2cc(Nc3nc(N4CCC(OC5CCC6(CC5)CN(c5cc7c(cc5F)C(=O)N(C5CCC(=O)NC5=O)C7)C6)CC4)ncc3Cl)ccc2n(C(C)C)c1=O` (stereo not drawn) [Compound 123, 2-{[6-({5-chloro-2-[4-({2-[2-(2,6-dioxopiperidin-3-yl)-6-fluoro-1-oxo-2,3-dihydro-1H-isoindol-5-yl]-2-azaspiro [3.5]nonan-7-yl}oxy)piperidin-1-yl]pyrimidin-4-yl}amino)-2-oxo-1-(propan-2-yl)-1,2-dihydroquinolin-3-yl]oxy}-N-methylacetamide], for which the DC50 was under 10 nM and the Dmax is at least 70%.

Consider `CNC(=O)COc1cc2cc(Nc3nc(N4CCC(CN5CC6(CCN(c7cccc8c7C(=O)N(C7CCC(=O)NC7=O)C8=O)CC6(F)F)C5)CC4)ncc3Cl)ccc2n(C(C)C)c1=O` (stereo not drawn) [Compound 124, 2-{[6-({5-chloro-2-[4-({7-[2-(2,6-dioxopiperidin-3-yl)-1,3-dioxo-2,3-dihydro-1H-isoindol-4-yl]-5,5-difluoro-2,7-diazaspiro[3.5]nonan-2-yl}methyl)piperidin-1-yl]pyrimidin-4-yl}amino)-2-oxo-1-(propan-2-yl)-1,2-dihydroquinolin-3-yl]oxy}-N-methylacetamide], for which the DC50 was under 10 nM and the Dmax was in the range of 50 to 70%.

Take `CNC(=O)COc1cc2cc(Nc3nc(N4CCC(CN5CC6(CCN(c7cccc8c7CN(C7CCC(=O)NC7=O)C8=O)CC6(F)F)C5)CC4)ncc3Cl)ccc2n(C(C)C)c1=O` (stereo not drawn) [Compound 125, 2-{[6-({5-chloro-2-[4-({7-[2-(2,6-dioxopiperidin-3-yl)-1-oxo-2,3-dihydro-1H-isoindol-4-yl]-5,5-difluoro-2,7-diazaspiro[3.5]nonan-2-yl}methyl)piperidin-1-yl]pyrimidin-4-yl}amino)-2-oxo-1-(propan-2-yl)-1,2-dihydroquinolin-3-yl]oxy}-N-methylacetamide]: the DC50 is under 10 nM and the Dmax was in the range of 50 to 70%.

As to `CNC(=O)COc1cc2cc(Nc3nc(N4CCC(CN5CCC6(CN(c7ccc8c(c7)C(=O)N(C7CCC(=O)NC7=O)C8=O)C6)C(F)(F)C5)CC4)ncc3Cl)ccc2n(CCOC)c1=O` (stereo not drawn) [Compound 126, 2-{[6-({5-chloro-2-[4-({2-[2-(2,6-dioxopiperidin-3-yl)-1,3-dioxo-2,3-dihydro-1H-isoindol-5-yl]-5,5-difluoro-2,7-diazaspiro[3.5]nonan-7-yl}methyl)piperidin-1-yl]pyrimidin-4-yl}amino)-1-(2-methoxyethyl)-2-oxo-1,2-dihydroquinolin-3-yl]oxy}-N-methylacetamide], the DC50 was under 10 nM and the Dmax is under 50%.

For orientation: DC50 means the concentration at which degradation of the target reaches its halfway point. For orientation: Dmax means the greatest extent of degradation seen.
